Test results: US20090069244A1, “Mutants of lactoferrin” (AM-Pharma B.V., priority 2007, published 2009)

Each substance was assayed on Methicillin Resistant Staphylococcus aureus (MRSA), Escherichia coli and/or Candida albicans (assay: Minimal inhibitory concentration (MIC) assay, microdilution). Details: MIC not more than 1 dilution from the reference peptide (Pep001 or MD012) counts as equal activity.
Assay type: cell-based
Text: To compare antimicrobial activity of the mutants, the inventors made use of the minimal inhibitory concentration (MIC) assay, extensively described in the literature and which has become a world wide standardized test for, e.g., determining susceptibility of strains towards antibiotics (reference “National Committee for Clinical Laboratory Standards: Performance standards for antimicrobial susceptibility testing; fourteenth informational supplement. M100-S14, Volume 24, Wayne, Pa.; 2004.”). The MIC assay is a fast, reliable assay that is used throughout the world in medical microbiology divisions to test e.g., antibiotic response of clinical isolates to monitor antibiotic therapy. MIC values represent the lowest concentration of antibiotic or antifungal that inhibits >90% of growth of the micro-organism. In hospitals MIC values are also used to determine strength of antibiotic therapy where one of the pharmacokinetic parameters is expressed as “hours over MIC”. The inventors therefore feel that MIC values, in contrast to e.g., killing assays, more closely relate to clinical efficacy of the drug and predict more correctly the success of a drug in the clinic.
Antimicrobial properties of the different peptides against a gram negative bacteria (Escherichia coli ATCC 035), a gram positive bacteria (Methicillin Resistant Staphylococcus aureus (MRSA) ATCC 2141) both obtained from the American Type Culture Collection (ATCC, Manassas (VA), USA) and Yeast (Candia Albicans Y01-19; clinical isolate of LUMC, Leiden, the Netherlands) were used for the MIC determination.
Minimal inhibitory concentrations (MICs) were determined by microdilution method according to CLSI guidelines using RPMI1640 medium diluted 1:4 in […] sterile filtered MilliQ and an bacterial inoculum of 5×10^5 CFU/ml. Plates were read after 20-24 h incubation at 35° C. in ambient air. MICs were recorded as the lowest concentration that inhibited visible growth.
Both tables show the MIC values of the various peptides for Methicillin Resistant Staphylococcus aureus (MRSA), Escherichia coli and/or Candida albicans. […]

Antimicrobial activity (MIC) compared with the reference peptide, acceptable antimicrobial activity:
RRRRQWC [RRRRQWC (SEQ ID NO:141)], RRRRSVC [RRRRSVC (SEQ ID NO:143)], RRRRSWC [RRRRSWC (SEQ ID NO:142)]
